As a reminder, the IC50 is the midpoint of a concentration-inhibition curve.

The source of these data is EP4349409A1, “COMPOUNDS FOR THE MANAGEMENT OF CELL STEMNESS AND INVASION IN CANCER AND RELATED DISEASES” (Instituto Biomar S.A., priority 2022, dated 2024).

The subject of assay [1] is p73 transcripts originated from the P1 promoter (TAp73, ΔEx2p73, ΔEx2/3p73). Description: qRT-PCR of p73 transcripts from the P1 promoter in U373 cells. The class given is cell-based, human. The settings on record: U373, same conditions as screening, 18S control. The procedure:
Expression levels of TAp73 (Figure 2C), ΔEx2p73 (Figure 2D) and ΔEx2/3p73 (Figure 2E) were determined by qRT-qPCR using 18S ribosomal RNA as housekeeping control, and all the expression values were normalized to TAp73 expression in non-treated cells (NT). […] The amino-truncated isoforms that are tumor-specific are vigorously expressed in advanced stages across a variety of highly aggressive human cancers (Knoll et al., 2011; Steder et al., 2013; George et al., 2015; Meier et al., 2016) and promote tumor initiation (Tannapfel et al., 2008) and cancer progression (Engelmann et al., 2015). Moreover, there is a somatic genomic rearrangement of TP73 that generates an oncogenic Ex2/3p73 in small cell lung cancer (George et al., 2015). BMT9 represses the activity of the P1-TP73 promoter, therefore it would be expected to downregulate the expression of any of the isoforms generated from this promoter in a given cell.
On the technique in general: In qPCR the cycle at which signal appears reflects the starting amount.

The subject of the next assay is G144. Description: Scratch (wound healing) assay, G144. The class given is cell-based, human. The settings on record: G144, 4.5µM, 24 h. The procedure: The effect of BMT9 in cell migration was evaluated using scratch assays, also known as wound healing assays. Cells were seeded in culture inserts for wound healing assays (Ibidi) at a cell density of 35,000 cells/cm^2; 24 h later the insert was removed to create the wound, and fresh medium was added with the corresponding treatment. Microscopy images were acquired at the time of treatment and 24 h later, using a Leica DMI3000 phase contrast microscope. Analysis was performed using the ImageJ software (Schindelin et al., 2012) and the MRI wound healing tool plugin (Suarez-Arnedo et al., 2020). Cell-free area was measured at the two indicated time points and the wound closure percentage relative to the starting point was calculated for each well individually. This assay was performed in G144 and in G179 cells (Figure 10 B and C, respectively).

In a further assay the test system is U373. Description: MTT-based cytotoxicity assay, U373. It is filed as cell-based. To be noted: Homo sapiens, U373 MG, 72 h. The procedure:
A dose-response analysis of BMT9 (concentrations ranging from 4.5 µM-18 µM), BCNU (from 150 µM-500 µM) and TMZ (350 µM-700 µM) was performed in two conventional glioblastoma cell lines (T98G, U373) and the GNS cell line G144 by MTT-based cytotoxicity assays (Figure 5A-D). Cells were seeded on p96-well plates and treated with the different compounds for 72 h. Then, the MTT reagent (3-(4,5-Dimethyl-2-thiazolyl)-2,5-diphenyl-2H-tetrazolium bromide diluted in PBS to a concentration of 1mg/ml), was added to each well to a final concentration of 0.33mg/ml, and incubated for 3 h at 37°C. After that, the media was removed, and formazan crystals were solubilized with DMSO. Absorbance was measured at 560 nm using a "Synergy HT" plate reader (Biotek). In the graphs, the Y axis represents the percentage of cell viability relative to non-treated cells. The IC50, when reached are marked by a rectangle. DMSO treatment had no effect on cell viability.
For orientation: Formazan colour is commonly taken as a measure of viable cells.

Another assay deals with G144 R500. Description: MTT assay, TMZ-resistant clone G144 R500. The class given is cell-based. The settings on record: Homo sapiens, 72 hours. The source says:
While the first line therapy of gliomas has proven its effectiveness and improved clinical outcomes, acquired chemoresistance to alkylating agents has been identified as a major cause of treatment failure (Sarkaria et al., 2008). In a murine model of GB, long-term treatment with subtoxic TMZ doses enriched the side population of cancer stem cells, increasing the tumor aggressiveness (Bleau et al., 2009). Thus, we generated TMZ-resistant G144-clones that were selected upon treatment with TMZ either at 500 µM or 700 µM for several months (R500 and R700, respectively). The obtained clones maintained CD133 stem marker expression (Figure 9A). We then analyzed BMT9 dose-dependent effect on cell viability, by MTT assay, comparing the resistant clones to parental cells.

In the next assay the test system is G144 cells. Description: Annexin V / propidium iodide apoptosis flow cytometry in G144 cells. The settings on record: 48 h. The class given is cell-based, human. As for the experimental part: For apoptosis induction analysis, the cells were treated with increasing amounts of BMT9 (4.5 µM and 9 µM) and collected 48 h after treatment. Anexin V and propidium iodide staining was performed using the FITC Annexin V Apoptosis Detection Kit I (BD Biosciences), following the manufacturer's instructions. Flow cytometry was performed with the "MACSQuantify Analyzer" (Miltenyi Biotec) and data were analyzed with "MACSQuantify" software (Miltenyi Biotec) (Figure 7A).
On the technique in general: A flow cytometer gives signals particle by particle.

In the case of `C=C1C2CCC(C)(C3COc4c(C)c(OC)c5c(c4C3O)C(O)OC5=O)C1CCC2(C)C` (stereo not drawn) [BMT9], the “expression levels of TAp73, ΔEx2p73 and ΔEx2/3p73” value in assay [1] was “reduced them all”. In the assay with G144, the “cell migration (wound closure)” value was “significantly impaired cell migration”. The figures for the IC50 in the assay with U373 and in the assay on G144 R500 were 18 µM and 4.5 to 9 µM, respectively. Besides, the apoptosis induction entry is “moderate levels of apoptosis” with G144 cells (G144, 4.5 µM (IC50 dosage)) and “strongly induced cell death” in the assay with G144 cells (G144, 9 µM).
